Experimental findings from patent US12091411B2, “IRAK degraders and uses thereof” (Kymera Therapeutics, Inc., priority 2022, dated 2024) are described below.

Like-named read-outs stand apart in the source and are kept apart here.

Broadly, the DC50 is the concentration at which degradation of the target reaches its halfway point.

In the assay the target is T1, IRAK4 (Homo sapiens, UniProt Q9NWZ3).
T1 construct: Degradation of IRAK4 in OCI-LY10 was quantitatively measured using Meso Scale Discovery technology; endogenous in cells; host or cells: OCI-LY10
T1 sequence (Q9NWZ3 1-460): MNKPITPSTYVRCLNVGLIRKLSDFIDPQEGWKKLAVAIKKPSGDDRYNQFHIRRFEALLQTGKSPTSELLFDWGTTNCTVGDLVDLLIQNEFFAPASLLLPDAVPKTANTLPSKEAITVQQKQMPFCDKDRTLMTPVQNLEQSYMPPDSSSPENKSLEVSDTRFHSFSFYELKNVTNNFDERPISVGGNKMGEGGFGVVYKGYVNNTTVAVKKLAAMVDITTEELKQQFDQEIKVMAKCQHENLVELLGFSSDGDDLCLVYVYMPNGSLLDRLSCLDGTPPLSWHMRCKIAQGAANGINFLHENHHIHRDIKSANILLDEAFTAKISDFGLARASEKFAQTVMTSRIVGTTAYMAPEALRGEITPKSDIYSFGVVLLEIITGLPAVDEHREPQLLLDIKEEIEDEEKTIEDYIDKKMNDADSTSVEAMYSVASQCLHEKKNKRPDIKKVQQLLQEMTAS
In words: IRAK4 MSD Degradation in OCI-LY10. The class given is cell-based. To be noted: OCI-LY10 cells, MSD. In a few lines: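 OCI-LY10 cells exposed to 8-point 1:3 compound series (top 1 to 10 μM) for 4 to 24 h at 37 °C, 5% CO2. Lysate IRAK4 quantified by MSD sandwich immunoassay. DC50 from three-parameter logistic fit, binned A (<0.01 μM) to D (>0.2 μM or not tested).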

Where [1] appears, read: 4 hrs incubation, read-out: IRAK4 degradation in OCI-LY10 at 4 hrs: DC50.
[2] abbreviates: 24 hrs incubation, read-out: IRAK4 degradation in OCI-LY10 at 24 hrs: DC50.

In the case of `Cn1c(=O)n(C2CCC(=O)NC2=O)c2cccc(C3CCN(C[C@H]4CC[C@H](n5cc6cc(NC(=O)c7cccc(C(F)(F)F)n7)c(C#N)cc6n5)CC4)CC3F)c21` (stereo partly shown) [I-548], the DC50 is, setting by setting: under setting [1], over 200 nM; under setting [2], under 10 nM.
As to `Cn1c(=O)n(C2CCC(=O)NC2=O)c2cccc(C3CCN(C[C@H]4CC[C@H](n5cc6cc(NC(=O)c7cccc(C(F)(F)F)n7)ncc6n5)CC4)CC3F)c21` (stereo partly shown) [I-549], the DC50 was over 200 nM under setting [1] and under 10 nM under setting [2].
On to `Cc1cc2nn([C@H]3CC[C@H](CN4CCC(c5cccc6c5n(C)c(=O)n6C5CCC(=O)NC5=O)C(F)C4)CC3)cc2cc1NC(=O)c1cccc(C(F)(F)F)n1` (stereo partly shown) [I-550], for which the DC50 reads like this: under setting [1], over 200 nM; under setting [2], under 10 nM.
For the compound `COc1ccc2c(c1C1CCN(C[C@H]3CC[C@H](n4cc5cc(NC(=O)c6cccc(C(F)(F)F)n6)ccc5n4)CC3)CC1F)n(C)c(=O)n2C1CCC(=O)NC1=O` (stereo partly shown) [I-551], the DC50 by setting is: under setting [1], over 200 nM; under setting [2], over 200 nM.
Regarding `Cn1c(=O)n(C2CCC(=O)NC2=O)c2cccc(C3CCN(C[C@H]4CC[C@H](n5cc6cc(NC(=O)c7cccc(C(F)(F)F)n7)c(Cl)cc6n5)CC4)CC3F)c21` (stereo partly shown) [I-552], the DC50 is over 200 nM under setting [1] and 10 to 100 nM under setting [2].
`Cn1c(=O)n(C2CCC(=O)NC2=O)c2cccc(C3CCN(C[C@H]4CC[C@H](n5cc6cc(NC(=O)c7cccc(C(F)(F)F)n7)ccc6n5)CC4)CC3F)c21` (stereo partly shown) [I-553]: the DC50 under setting [1] is over 200 nM and the DC50 under setting [2] was under 10 nM.
In the same order, the values of `Cn1c(=O)n(C2CCC(=O)NC2=O)c2cccc(C3CCN(C[C@H]4CC[C@H](n5cc6cc(NC(=O)c7cccc(C(F)(F)F)n7)c(F)cc6n5)CC4)CC3F)c21` (stereo partly shown) [I-554] are over 200 nM and 10 to 100 nM.
On to `CN(C[C@H]1CC[C@H](n2cc3cc(NC(=O)c4cccc(C(F)(F)F)n4)ccc3n2)CC1)C1CCN(c2cccc3c2n(C)c(=O)n3C2CCC(=O)NC2=O)CC1F` (stereo partly shown) [I-555], for which the DC50 under setting [1] was over 200 nM and the DC50 under setting [2] fell in the range of 10 to 100 nM.
In the same order, the values of `COc1cc2nn([C@H]3CC[C@H](CN(C)C4CCN(c5cccc6c5n(C)c(=O)n6C5CCC(=O)NC5=O)CC4F)CC3)cc2cc1NC(=O)c1cccc(C(F)(F)F)n1` (stereo partly shown) [I-556] are over 200 nM and over 200 nM.
`CN(C[C@H]1CC[C@H](n2cc3cc(NC(=O)c4cccc(C(F)(F)F)n4)c(C(F)F)cc3n2)CC1)C1CCN(c2cccc3c2n(C)c(=O)n3C2CCC(=O)NC2=O)CC1F` (stereo partly shown) [I-557]: the DC50 is, setting by setting: under setting [1], over 200 nM; under setting [2], over 200 nM.
Consider `CN(C[C@H]1CC[C@H](n2cc3cc(NC(=O)c4cccc(C(F)(F)F)n4)c(C#N)cc3n2)CC1)C1CCN(c2cccc3c2n(C)c(=O)n3C2CCC(=O)NC2=O)CC1F` (stereo partly shown) [I-558], for which the DC50 was over 200 nM under setting [1] and over 200 nM under setting [2].
On to `CN(C[C@H]1CC[C@H](n2cc3cc(NC(=O)c4cccc(C(F)(F)F)n4)c(S(C)(=O)=O)cc3n2)CC1)C1CCN(c2cccc3c2n(C)c(=O)n3C2CCC(=O)NC2=O)CC1F` (stereo partly shown) [I-559], for which the DC50 is over 200 nM under setting [1] and over 200 nM under setting [2].
As for `CN(C[C@H]1CC[C@H](n2cc3cc(NC(=O)c4cccc(C(F)(F)F)n4)c(S(C)(=N)=O)cc3n2)CC1)C1CCN(c2cccc3c2n(C)c(=O)n3C2CCC(=O)NC2=O)CC1F` (stereo partly shown) [I-560], the DC50 is, setting by setting: under setting [1], over 200 nM; under setting [2], over 200 nM.
Turning to `CN(C[C@H]1CC[C@H](n2cc3cc(NC(=O)c4cccc(C(F)(F)F)n4)c([S+](C)[O-])cc3n2)CC1)C1CCN(c2cccc3c2n(C)c(=O)n3C2CCC(=O)NC2=O)CC1F` (stereo partly shown) [I-561], the DC50 is over 200 nM under setting [1] and over 200 nM under setting [2].
Take `COc1ccc2c(c1N1CCC(N(C)C[C@H]3CC[C@H](n4cc(NC(=O)c5cnn6cccnc56)c(C(F)F)n4)CC3)C(F)C1)n(C)c(=O)n2C1CCC(=O)NC1=O` (stereo partly shown) [I-563]: the DC50 was over 200 nM under setting [1] and over 200 nM under setting [2].
Turning to `Cn1c(=O)n(C2CCC(=O)NC2=O)c2cccc(N3CC(F)(F)C34CN(C[C@H]3CC[C@H](n5cc6cc(NC(=O)c7cccc(C(F)(F)F)n7)c(C#N)cc6n5)CC3)C4)c21` (stereo partly shown) [I-564], the DC50 is, setting by setting: under setting [1], over 200 nM; under setting [2], over 200 nM.
Regarding `Cn1c(=O)n(C2CCC(=O)NC2=O)c2cccc(N3CC4(C3)N(C[C@H]3CC[C@H](n5cc6cc(NC(=O)c7cccc(C(F)(F)F)n7)c(C#N)cc6n5)CC3)CC4(F)F)c21` (stereo partly shown) [I-565], the DC50 is, setting by setting: under setting [1], over 200 nM; under setting [2], over 200 nM.
Take `Cn1c(=O)n(C2CCC(=O)NC2=O)c2cccc(N3CCC(N4CC5(CCC(n6cc7cc(NC(=O)c8cccc(C(F)(F)F)n8)c(C#N)cc7n6)CC5)C4)C(F)(F)C3)c21` (stereo not shown) [I-566]: the DC50 was over 200 nM under setting [1] and over 200 nM under setting [2].
In the case of `Cn1c(=O)n(C2CCC(=O)NC2=O)c2cccc(N3CCC(F)(CN4CC5(CCC(n6cc7cc(NC(=O)c8cccc(C(F)(F)F)n8)c(C#N)cc7n6)CC5)C4)CC3)c21` (stereo not shown) [I-567], the DC50 under setting [1] was over 200 nM and the DC50 under setting [2] was over 200 nM.
With `Cn1c(=O)n(C2CCC(=O)NC2=O)c2ccc(C3CCN(C[C@H]4CC[C@H](n5cc6cc(NC(=O)c7cccc(C(F)(F)F)n7)c(C#N)cc6n5)CC4)CC3(F)F)cc21` (stereo partly shown) [I-568], the DC50 under setting [1] is over 200 nM and the DC50 under setting [2] is over 200 nM.
For the compound `Cn1c(=O)n(C2CCC(=O)NC2=O)c2ccc(C3CCN(C[C@H]4CC[C@H](n5cc6cc(NC(=O)c7cccc(C(F)(F)F)n7)c(C(F)F)cc6n5)CC4)CC3(F)F)cc21` (stereo partly shown) [I-569], the DC50 reads like this: under setting [1], over 200 nM; under setting [2], over 200 nM.
As for `CN(C[C@H]1CC[C@H](n2cc(NC(=O)c3cnn4cccnc34)c(C(F)F)n2)CC1)C1CCN(c2ccc3c(c2)n(C)c(=O)n3C2CCC(=O)NC2=O)CC1(F)F` (stereo partly shown) [I-570], the DC50 under setting [1] is over 200 nM.
Consider `Cn1c(=O)n(C2CCC(=O)NC2=O)c2cccc([C@H]3C[C@H](COC4CCN(C[C@H]5CC[C@H](n6cc(NC(=O)c7cnn8ccc(N9C[C@H]%10C[C@@H]9CO%10)nc78)c(C(F)F)n6)CC5)CC4F)C3)c21` (stereo partly shown) [I-571], for which the DC50 is over 200 nM under setting [1] and over 200 nM under setting [2].
For the compound `Cn1c(=O)n(C2CCC(=O)NC2=O)c2cccc([C@H]3C[C@H](CN4CCN(C[C@H]5CC[C@H](n6cc(NC(=O)c7cnn8cccnc78)c(C(F)F)n6)CC5)CC4)C3)c21` (stereo partly shown) [I-572], the DC50 under setting [1] is over 200 nM and the DC50 under setting [2] is over 200 nM.
For the compound `Cn1c(=O)n(C2CCC(=O)NC2=O)c2cccc([C@H]3C[C@@H]3CN3CCN(C[C@H]4CC[C@H](n5cc(NC(=O)c6cnn7ccc(N8C[C@H]9CC8CO9)nc67)c(C(F)F)n5)CC4)CC3)c21` (stereo partly shown) [I-573], the DC50 was over 200 nM under setting [1] and over 200 nM under setting [2].
As to `Cn1c(=O)n(C2CCC(=O)NC2=O)c2cccc([C@H]3C[C@](F)(CN4CCN(C[C@H]5CC[C@H](n6cc(NC(=O)c7cnn8ccc(N9C[C@H]%10CC9CO%10)nc78)c(C(F)F)n6)CC5)CC4)C3)c21` (stereo partly shown) [I-574], the DC50 by setting is: under setting [1], over 200 nM; under setting [2], over 200 nM.
With `C[C@@H]([C@H]1C[C@H](c2cccc3c2n(C)c(=O)n3C2CCC(=O)NC2=O)C1)N1CCN(C[C@H]2CC[C@H](n3cc(NC(=O)c4cnn5ccc(N6C[C@H]7CC6CO7)nc45)c(C(F)F)n3)CC2)CC1` (stereo partly shown) [I-575], the DC50 under setting [1] was over 200 nM and the DC50 under setting [2] was over 200 nM.
As to `Cn1c(=O)n(C2CCC(=O)NC2=O)c2cccc(C[C@H]3C[C@H](N4CCN(C[C@H]5CC[C@H](n6cc(NC(=O)c7cnn8ccc(N9C[C@H]%10CC9CO%10)nc78)c(C(F)F)n6)CC5)CC4)C3)c21` (stereo partly shown) [I-576], the DC50 is, setting by setting: under setting [1], over 200 nM; under setting [2], under 10 nM.
